Literature values as cited in patent publication US20240180871A1, “MODIFIED-RELEASE SILODOSIN COMPOSITIONS AND USE THEREOF IN METHODS FOR MALE CONTRACEPTION” (PHARMAJOR INCORPORATED, priority 2022, published 2024).
Read-outs that look alike come from different tables or passages of the source.

Columns and labels:
[1] = system: male subjects

| SMILES | solubility (in acetic acid) | solubility (in alcohol) | solubility (in water) | effect on semen in male subjects ([1]; during BPH treatment, in some cases, KOBAYASHI 2009, SAKATA 2012) | sex-related adverse effects associated with administration ([1]; known in the art) |
| --- | --- | --- | --- | --- | --- |
| C[C@H](Cc1cc2c(c(C(N)=O)c1)N(CCCO)CC2)NCCOc1ccccc1OCC(F)(F)F [(R)-silodosin, (−)-(R)-1-(3-hydroxypropyl)-5-[2-[[2-[2-(2,2,2-trifluoroethoxy)phenoxy]ethyl]amino]propyl]indoline-7-carboxamide] | very soluble | freely soluble | very slightly soluble |  |  |
| CC(Cc1cc2c(c(C(N)=O)c1)N(CCCO)CC2)NCCOc1ccccc1OCC(F)(F)F (centres unmarked) [silodosin, 1-(3-hydroxypropyl)-5-[2-[[2-[2-(2,2,2-trifluoroethoxy)phenoxy]ethyl]amino]propyl]indoline-7-carboxamide] |  |  |  | causing aspermia, azoospermia, or severe oligozoospermia | discomfort upon ejaculation, decrease in the quality of orgasm, decrease in erectile function, and reduction of sexual desire |
